Experimental data taken from patent US10383894B2, “Human medicinal treatment using salt of peroxymonosulfuric acid” (LuTran Industries, Inc., priority 2010, dated 2019).

What was measured:
Type in all cases: in vivo, human
dandruff = experiment: Treatment of persons with dandruff with the Medicine (Examples 37-40); details: Example 37: prior treatment, (some of) these decreased the amount of dandruff
Text: Given below are examples of using the medicinal drug of type I/II for treating allergic rhinitis, osteoarthritis, gouty arthritis, bronchitis, hemorrhoids, urticaria, toothache, tinea pedis, acute viral nasopharyngitis, herpes simplex, dandruff, itching, bromhidrosis, and vaginitis. […] A formulation approximating this formulation is commercially available in the product Virkon. This formulation of the drug of type I/II is referred to below as the “Medicine”.
The Medicine was provided to […] as a 1% solution for topical administration by scrubbing the Medicine into their scalp and hair for 5 minutes and then washing their scalp and hair. The […] reported that they administered the Medicine to themself in the foregoing manner 4 times a week for 2 weeks.

itching = experiment: Treatment of persons with itching with the Medicine (Examples 41-43); details: no dose given
Text: (§1) Given below are examples of using the medicinal drug of type I/II for treating allergic rhinitis, osteoarthritis, gouty arthritis, bronchitis, hemorrhoids, urticaria, toothache, tinea pedis, acute viral nasopharyngitis, herpes simplex, dandruff, itching, bromhidrosis, and vaginitis. The formulation of the drug of type I/II used in these examples was the preferred formulation, mentioned above, in which the drug was formed with potassium hydrogen peroxymonosulfate as the active oxygen-releasing material, sodium chloride as the inorganic halide, sodium hexametaphosphate as the alkali metal phosphate, sulfamic acid, malic acid as the non-reducing organic acid, and sodium dodecylbenzene sulfonate as the surfactant at approximately the typical mass percentages mentioned above. A formulation approximating this formulation is commercially available in the product Virkon. This formulation of the drug of type I/II is referred to below as the “Medicine”. […]

vaginitis = experiment: Treatment of persons with vaginitis with the Medicine (Examples 48-50); details: no dose given
Text: as §1

gouty arthritis = experiment: Treatment of persons with gouty arthritis with the Medicine (Examples 9-11); details: no dose given; for patient-reported outcome of previously tried treatments: Example 11: prior treatment
Text: Given below are examples of using the medicinal drug of type I/II for treating allergic rhinitis, osteoarthritis, gouty arthritis, bronchitis, hemorrhoids, urticaria, toothache, tinea pedis, acute viral nasopharyngitis, herpes simplex, dandruff, itching, bromhidrosis, and vaginitis. The formulation of the drug of type I/II used in these examples was the preferred formulation, mentioned above, in which the drug was formed with potassium hydrogen peroxymonosulfate as the active oxygen-releasing material, sodium chloride as the inorganic halide, sodium hexametaphosphate as the alkali metal phosphate, sulfamic acid, malic acid as the non-reducing organic acid, and sodium dodecylbenzene sulfonate as the surfactant at approximately the typical mass percentages mentioned above. A formulation approximating this formulation is commercially available in the product Virkon. This formulation of the drug of type I/II is referred to below as the “Medicine”.
The Medicine for each person infected with allergic rhinitis, osteoarthritis, gouty arthritis, bronchitis, hemorrhoids, urticaria, toothache, tinea pedis, acute viral nasopharyngitis, herpes simplex, dandruff, itching, bromhidrosis, and vaginitis is provided for topical, intranasal, oral, or/and injection administration 1-12 times per day, preferably 1-8 times per day, more preferably 1-6 times per day, typically 1-4 times per day, in liquid form at a dosage of 0.00001-5%, preferably 0.001-3%, more preferably 0.1-2%, typically 0.5-1%, for a time of contact of 1 minute-12 hours, preferably 1 minute-6 hours, more preferably 1 minute-2 hours, typically 1-30 minutes . The treatment period in each in each of the following examples is normally 1-12 months, preferably 1-6 months, more preferably 1-3 months, typically 1-30 days.
A retired adult had gouty arthritis for 10 years. The […] reported that they were in excruciating pain on random days and that previously attempted treatments for the pain were unsuccessful. […]

[1] = system: acute viral nasopharyngitis; experiment: Treatment of persons with acute viral nasopharyngitis with the Medicine (Examples 28-32); details: Example 30: prior treatment, no dose given
osteoarthritis = experiment: Treatment of persons with osteoarthritis with the Medicine (Examples 6-8); details: Example 6: prior treatment, no dose given
Text: as §1

bronchitis = experiment: Treatment of persons with bronchitis with the Medicine (Examples 12-14); details: Example 13: prior treatment, no dose given
Text: as §1

## S=[Se]=S [selenium sulfide]
dandruff
  patient-reported outcome of previously tried treatments for dandruff: dandruff was still visible on their scalp

## C[C@]12CCC(=O)C=C1CC[C@@H]1[C@@H]2[C@@H](O)C[C@@]2(C)[C@H]1CC[C@]2(O)C(=O)CO [hydrocortisone]
itching; Example 42: prior treatment
  patient-reported outcome of previously tried treatments for itching: without success
itching; Example 43: prior treatment
  patient-reported outcome of previously tried treatments for itching: little success
vaginitis; Example 48: prior treatment
  patient-reported outcome of previously tried treatments for vaginitis: without significant success
vaginitis; Example 50: prior treatment
  patient-reported outcome of previously tried treatments for vaginitis: to no avail

## COc1cc2c(c(OC)c1OC)-c1ccc(OC)c(=O)cc1[C@@H](NC(C)=O)CC2 [colchicines, colchicine]
Gouty arthritis
  patient-reported outcome of previously tried treatments: without significant success

## CC(=O)Nc1ccc(O)cc1 [paracetamol]
[1]
  patient-reported outcome of previously tried treatments for acute viral nasopharyngitis: little success

## CC(=O)N1CCN(c2ccc(OCC3COC(Cn4ccnc4)(c4ccc(Cl)cc4Cl)O3)cc2)CC1 (centres unmarked) [ketoconazole]
dandruff
  patient-reported outcome of previously tried treatments for dandruff: dandruff was still visible on their scalp

## zinc pyrithione
dandruff
  patient-reported outcome of previously tried treatments for dandruff: dandruff was still visible on their scalp

## N[C@H]1C(O)O[C@H](CO)[C@@H](O)[C@@H]1O (some centres unmarked) [glucosamine]
osteoarthritis
  patient-reported outcome of previously tried treatments for osteoarthritis: without effective relief

## CN[C@@H](C)[C@@H](O)c1ccccc1 [pseudoephedrine]
[1]
  patient-reported outcome of previously tried treatments for acute viral nasopharyngitis: little success

## COc1ccc2c3c1O[C@H]1[C@@H](O)C=C[C@H]4[C@@H](C2)N(C)CC[C@@]341 [codeine]
bronchitis
  patient-reported outcome of previously tried treatments for bronchitis: little success

## CC(C)Cc1ccc(C(C)C(=O)O)cc1 (centres unmarked) [ibuprofen]
Gouty arthritis; Example 10: prior treatment
  patient-reported outcome of previously tried treatment for gouty arthritis: no significant success
Gouty arthritis
  patient-reported outcome of previously tried treatments: without significant success
